Data reported in patent publication US20260193250A1, “TOLL-LIKE RECEPTOR 7 AGONISTS AS IMMUNE-STIMULATORS TO ELICIT THE INNATE ANTITUMOR IMMUNITY” (Merck Patent GmbH, priority 2022, published 2026).

How the values were obtained:
hTLR7 = target: T1, hTLR7 (Homo sapiens, UniProt Q9NYK1); assay: TLR7 reporter assay in HEK-Blue cells (SEAP, Quanti-Blue); type: cell-based; details: 24 hours incubation, SEAP absorbance at 620 nm
T1 construct: host or cells: HEK-Blue hTLR7 (HEK293-derived SEAP reporter cells)
T1 sequence (Q9NYK1 27-1049): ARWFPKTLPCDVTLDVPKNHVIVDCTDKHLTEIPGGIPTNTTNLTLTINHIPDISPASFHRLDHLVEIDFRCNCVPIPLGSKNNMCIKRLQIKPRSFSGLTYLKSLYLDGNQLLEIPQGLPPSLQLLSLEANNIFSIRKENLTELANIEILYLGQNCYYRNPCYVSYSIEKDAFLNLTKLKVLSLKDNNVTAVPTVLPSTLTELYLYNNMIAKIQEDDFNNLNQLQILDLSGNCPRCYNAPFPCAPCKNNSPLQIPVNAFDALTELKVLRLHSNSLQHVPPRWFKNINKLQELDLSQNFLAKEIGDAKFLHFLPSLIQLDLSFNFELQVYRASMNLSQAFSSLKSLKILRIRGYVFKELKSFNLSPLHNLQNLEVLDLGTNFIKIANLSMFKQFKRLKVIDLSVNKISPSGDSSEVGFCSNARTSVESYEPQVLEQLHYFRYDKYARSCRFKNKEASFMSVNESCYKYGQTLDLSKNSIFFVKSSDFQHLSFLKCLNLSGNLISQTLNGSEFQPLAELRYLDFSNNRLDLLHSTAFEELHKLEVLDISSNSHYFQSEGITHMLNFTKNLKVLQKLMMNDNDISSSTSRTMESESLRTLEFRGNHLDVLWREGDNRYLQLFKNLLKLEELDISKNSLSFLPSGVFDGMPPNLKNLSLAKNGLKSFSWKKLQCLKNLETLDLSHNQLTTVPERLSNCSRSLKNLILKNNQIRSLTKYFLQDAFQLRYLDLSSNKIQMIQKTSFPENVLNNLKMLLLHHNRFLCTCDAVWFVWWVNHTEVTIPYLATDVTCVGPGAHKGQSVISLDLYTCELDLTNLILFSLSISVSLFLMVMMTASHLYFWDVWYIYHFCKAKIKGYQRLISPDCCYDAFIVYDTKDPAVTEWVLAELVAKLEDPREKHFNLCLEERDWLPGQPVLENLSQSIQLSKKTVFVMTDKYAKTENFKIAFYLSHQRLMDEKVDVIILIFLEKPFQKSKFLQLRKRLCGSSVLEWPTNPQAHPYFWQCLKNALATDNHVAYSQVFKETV
Procedure: (§1) HEK-Blue™ TLR7 and TLR8 cell lines were obtained from InvivoGen (San Diego, CA, USA). HEK-Blue cells were cultured in DMEM medium hi glucose (Gibco-10569010) supplemented with 10% HI-FBS (Aus origin) (Gibco-10100-147), 1% penicillin/streptomycin (Gibco-15140-122-100 ml) as per manufacturer's recommendation. In addition, specific antibiotic mixtures were added to the culture. 100 μg/ml Zeocin (11006-33-0), 10 μg/ml Blasticidin (ant-bl-05), 50 μg/ml Normocin (ANT-NR-1-500 MG) for HEK-Blue™ hTLR7 and 100 μg/ml Zeocin, 30 μg/ml Blasticidin, 50 μg/ml Normocin for HEK-Blue™ hTLR8 cells (all from InvivoGen).
(§2) All the compounds were prepared in 100% DMSO (Sigma-D2650). The compounds were serially diluted in 100% DMSO (3 fold) up to 10 point dose response curve starting with 30 μM; final concentration of DMSO in the plate was 0.3%. Resiquimod and TL8-506 (InvivoGen-tlrl-t18506) were used as controls. 0.3% DMSO and 10 μM Resiquimod were used as min and max respectively, and % activation was calculated using following formula:
(§3) % Activation: {100−(max absorbance−absorbance)/(max absorbance−min absorbance)}×100.
(§4) For stimulation with TLR7/8 agonists, cells were resuspended in complete media and 40 μl of cell suspension (10,000 cells/well) was seeded on day 1 in 384 well assay plate (Thermo Scientific™ Nunc-164688) having pre-dispensed compounds with Echo Liquid handler. The plate was spun at 100 g for 1 min to settle down the cells and incubated at 37° C. with 5% CO2 for 24 hours. For measuring production of SEAP after 24 hrs of incubation, 10 μl of Quanti-Blue™ solution (InvivoGen rep-qbs2) prepared according to manufacturer's instructions was added in dark to the assay plate and incubated at 37° C. with 5% CO2 for 30 min. Post incubation, the absorbance was measured at 620 nm in Tecan spark (Spark control Magellan). EC50 were determined using Graph Pad Prism Statistical software (Version 7.05), with individual data points represent the absorbance values of duplicates.

hTLR8 = target: T2, hTLR8 (Homo sapiens, UniProt Q9NR97); assay: TLR8 reporter assay in HEK-Blue cells (SEAP, Quanti-Blue); type: cell-based; details: 24 hours incubation, SEAP absorbance at 620 nm
T2 construct: host or cells: HEK-Blue hTLR8 (HEK293-derived SEAP reporter cells)
T2 sequence (Q9NR97 27-1041): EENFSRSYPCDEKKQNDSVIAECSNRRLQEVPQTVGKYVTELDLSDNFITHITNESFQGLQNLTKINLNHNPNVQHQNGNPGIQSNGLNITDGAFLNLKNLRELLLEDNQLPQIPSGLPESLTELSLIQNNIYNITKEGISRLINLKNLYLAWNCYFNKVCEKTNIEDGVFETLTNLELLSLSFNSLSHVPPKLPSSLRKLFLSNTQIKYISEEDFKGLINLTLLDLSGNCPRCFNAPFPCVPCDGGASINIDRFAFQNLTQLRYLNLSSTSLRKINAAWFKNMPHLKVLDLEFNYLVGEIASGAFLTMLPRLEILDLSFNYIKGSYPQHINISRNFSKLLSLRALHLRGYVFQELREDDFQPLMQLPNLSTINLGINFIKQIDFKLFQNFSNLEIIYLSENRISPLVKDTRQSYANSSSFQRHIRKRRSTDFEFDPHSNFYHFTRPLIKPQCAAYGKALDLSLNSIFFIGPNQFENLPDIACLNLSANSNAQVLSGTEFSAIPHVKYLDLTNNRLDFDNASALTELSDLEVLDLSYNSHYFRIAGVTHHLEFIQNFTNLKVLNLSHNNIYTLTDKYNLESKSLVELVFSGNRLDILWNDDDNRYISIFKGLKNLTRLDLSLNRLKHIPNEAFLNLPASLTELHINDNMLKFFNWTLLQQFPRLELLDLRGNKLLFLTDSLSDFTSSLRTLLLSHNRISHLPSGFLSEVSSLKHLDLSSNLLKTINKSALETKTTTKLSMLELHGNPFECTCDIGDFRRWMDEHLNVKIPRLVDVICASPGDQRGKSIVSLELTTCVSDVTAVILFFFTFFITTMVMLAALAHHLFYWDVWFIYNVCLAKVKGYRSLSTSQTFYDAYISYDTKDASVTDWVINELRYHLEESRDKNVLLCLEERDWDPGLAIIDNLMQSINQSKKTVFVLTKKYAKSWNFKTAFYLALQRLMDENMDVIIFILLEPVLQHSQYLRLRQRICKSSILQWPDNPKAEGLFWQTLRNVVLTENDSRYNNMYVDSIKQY
Procedure: as §1, §2, §3, §4

EC50 (hTLR7) [µM]	EC50 (hTLR8) [µM]	Compound
0.01 to 0.1	> 10	CCOCc1nc2c(N)nc3ccccc3c2n1CC(C)(C)OCCCCn1cc(CO)nn1 [Example 13]
0.01 to 0.1	1 to 10	CCOCc1nc2c(N)nc3ccccc3c2n1CC(C)(C)OCCCCn1cc(CN)nn1 [Example 14]
< 0.01	0.1 to 1	CCOCc1nc2c(N)nc3ccccc3c2n1CC(C)(C)OCCCCCN1CCN(C)CC1 [Example 4]
0.01 to 0.1	1 to 10	CCOCc1nc2c(N)nc3ccccc3c2n1CC(C)(C)OCCCCN1CCNCC1 [Example 10]
0.01 to 0.1	1 to 10	CCOCc1nc2c(N)nc3ccccc3c2n1CC(C)(C)OCCCN1CCN(C)CC1 [Example 2]
0.01 to 0.1	0.1 to 1	CCOCc1nc2c(N)nc3ccccc3c2n1CC(C)(C)OCCCCN1CCCC1 [Example 9]
1 to 10	> 10	CCNCc1nc2c(N)nc3ccccc3c2n1CC(C)(C)OCCCCN1CCN(C)CC1 [Example 18]
0.1 to 1	0.01 to 0.1	CCOCc1nc2c(N)nc3ccccc3c2n1CC(C)(C)OC(=O)CN [Example 19]
0.01 to 0.1	0.1 to 1	CCOCc1nc2c(N)nc3ccccc3c2n1CC(C)(C)OCCCCN1CCOCC1 [Example 7]
0.1 to 1	1 to 10	CCOCc1nc2c(N)nc3ccccc3c2n1CC(C)(C)OCCCCN1CCN(CCN)CC1 [Example 11]
0.01 to 0.1	1 to 10	CCOCc1nc2c(N)nc3ccccc3c2n1CC(C)(C)OCCCCN1CCCCC1 [Example 8]
< 0.01	1 to 10	CCOCc1nc2c(N)nc3ccccc3c2n1CC(C)(C)OCCCCN1CCN(C)CC1 [Example 3]

Compound	EC50 (hTLR7) [µM]	EC50 (hTLR8) [µM]
CCOCc1nc2c(N)nc3ccccc3c2n1CC(C)(C)OCCCCN1CCN(CC(C)(C)SC)CC1 [Example 27]	0.01 to 0.1	1 to 10
